{"source": "paper PMC10257291", "about": "“Biological activities of extracts and compounds from Thai Kae-Lae (Maclura cochinchinensis (Lour.) Corner)” (BMC Complementary Medicine and Therapies, 2023)", "tested_on": "WT1 protein", "assay": "WT1 protein expression by Western blot in K562 cells", "type": "cell-based, human", "conditions": "IC20 value, 48 h, vs vehicle control", "experimental": "Leukaemic stem cells (KG-1a) and leukaemic cells (EoL-1 and K562) were used as cell models which overexpressed WT1 protein expression. Cells were treated with crude fractional extracts and active compounds at a 20% growth inhibition (IC20 value) of each extract. Following 48-h of incubation, cells were washed. The whole protein was extracted using RIPA buffer. The protein concentration was determined by the Pierce™ BCA Protein Assay Kit (ThermoFisher Scientific, IL, USA). Extracted protein sample at 30 − 50 μg was loaded to 12% SDS-PAGE and then transferred to PVDF membranes. The method was done as previously described. The specific protein bands were determined by Luminata™ Forte Western HRP substrate (Merck, Darmstadt, Germany) and exposed to X-ray film (Sakura, Japan). Quantity One 1-D Analysis software (Bio-Rad, USA) was used to quantify densitometry. The density values of WT1 bands were normalized to GAPDH bands.", "data": [{"smiles": "Oc1ccc(/C=C/c2cc(O)cc(O)c2)cc1", "note": "[Resveratrol, resveratrol]", "values": [{"measurement": "suppression of WT1 protein expression in K562 cells", "result": "53.78 ± 4.28", "unit": "%"}]}]}
